Values joined by “and” are separate entries in the source; they are usually repeats but may differ in a detail not shown here. Equal entries are not always repeated. Values belong to the molecule of their own block, whether it stands above or below them.
Assay: solvent given as SMILES

SMILES: CCCCCCn1c2cc(C=C(C#N)C#N)sc2c2sc3c(sc4c5sc(C=C(C#N)C#N)cc5n(CCCCCC)c43)c21
emission maximum (in ClCCl): 620 nm

SMILES: CCCCCCOc1ccc(-c2cnc(-c3nnc(-c4ccc(OCCCCCC)cc4)o3)o2)cc1
emission maximum (in C1CCCCC1): 370 nm | emission maximum (in C1CCOC1): 386 nm | emission maximum (in CC#N): 400 nm | emission maximum (in CCO): 411 nm | emission maximum (in CO): 419 nm | emission maximum (in ClC(Cl)Cl): 390 nm

SMILES: CC1=[N+]2C(=C(c3ccc(N(C)C)cc3)c3ccc(C)n3[B-]2(F)F)C=C1
emission maximum (in C1CCCCC1): 518 nm | emission maximum (in C1CCOC1): 517 nm | emission maximum (in CC#N): 511 nm | emission maximum (in CC(=O)C(C)(C)C): 512 nm | emission maximum (in CC(C)=O): 515 nm | emission maximum (in CCCCCC): 519 nm | emission maximum (in CCOC(C)=O): 513 nm | emission maximum (in CO): 511 nm | emission maximum (in Cc1ccccc1): 580 nm | emission maximum (in ClC(Cl)Cl): 615 nm

SMILES: O=S(=O)(c1cccc(N2c3ccccc3Oc3ccccc32)c1)c1cccc(N2c3ccccc3Oc3ccccc32)c1
emission maximum (in C1CCOC1): 596 nm | emission maximum (in CCCCC(CC)n1c2ccc(-n3c4ccccc4c4ccccc43)cc2c2cc(-n3c4ccccc4c4ccccc43)ccc21): 542.52 nm | emission maximum (in Cc1ccccc1): 547 nm | emission maximum (in ClC(Cl)Cl): 572 nm | emission maximum (in c1cc(-n2c3ccccc3c3ccccc32)cc(-n2c3ccccc3c3ccccc32)c1): 546.26 nm

SMILES: CCN(CC)c1ccc2c(c1)OC1=C(/C=C/C3=[N+](C)c4ccc5ccccc5c4C3(C)C)CCCC1=C2c1ccccc1C(=O)O
emission maximum (in CC#N): 763 nm | emission maximum (in CCO): 750 nm | emission maximum (in CO): 753 nm | emission maximum (in ClC(Cl)Cl): 761 nm

SMILES: COc1ccc(-c2nc(-c3ccccc3OC)[nH]c2-c2ccc(OC)cc2)cc1
emission maximum (in CO): 392 nm

SMILES: CCOC(=O)c1c(-c2c(Cl)c3cc(C)ccc3oc2=O)nn(-c2ccccc2)c1C(=O)OCC
emission maximum (in ClCCl): 417 nm

SMILES: Fc1c(F)c(-n2c3ccccc3c3ccccc32)c(F)c(F)c1-c1nnc(-c2ccccc2)o1
emission maximum (in Cc1ccccc1): 444 nm

SMILES: Cc1ccc2c(c1)C1(c3ccccc3Oc3ccccc31)c1cc(C)ccc1N2c1ccc(-c2nc(-c3ccccc3)cc(-c3ccccc3)n2)cc1
emission maximum (in Cc1ccccc1): 451 nm | emission maximum (in O=P(c1ccccc1)(c1ccccc1)c1ccc2oc3ccc(P(=O)(c4ccccc4)c4ccccc4)cc3c2c1): 452 nm

SMILES: Nc1ccc2c(c1)C(=O)c1ccc(N)cc1C2=O
emission maximum (in CC#N): 594 nm | emission maximum (in CC(C)O): 616 nm | emission maximum (in CCO): 616 nm | emission maximum (in CCOC(C)=O): 547.6 nm | emission maximum (in CO): 616 nm

SMILES: CC(C)(C)c1ccc2c(c1)c1cc(C(C)(C)C)cc3c1n2-c1cc(-c2ccccc2F)cc2c1B3c1cc(C(C)(C)C)cc3c4cc(C(C)(C)C)ccc4n-2c13
emission maximum (in Cc1ccccc1): 499.76 nm

SMILES: O=C1C(=Cc2ccc(Br)cc2)Oc2cccc(O)c21
emission maximum (in CC#N): 487 nm

SMILES: COc1ccc(C2=C3C=C(/C=C/C(=O)OC(C)(C)C)C=[N+]3[B-](F)(F)n3cccc32)cc1
emission maximum (in ClCCl): 572 nm

SMILES: C(C1=[NH+]c2cccc3cccc1c23)=c1[nH]c2cccc3cccc1c32
emission maximum (in CO): 617 nm

SMILES: CC(C)(C)c1ccc(N(c2ccc(S(=O)(=O)c3ccc(S(=O)(=O)c4ccc(N(c5ccc(C(C)(C)C)cc5)c5ccccc5C(C)(C)C)cc4)cc3)cc2)c2ccccc2C(C)(C)C)cc1
emission maximum (in Cc1ccccc1): 454 nm | emission maximum (in c1cc(-n2c3ccccc3c3ccccc32)nc(-n2c3ccccc3c3ccccc32)c1): 463.53 nm

SMILES: C(=C\c1ccc(-c2nnc(-c3ccc(/C=C/c4ccc(-c5nc(-c6ccccc6)c(-c6ccccc6)[nH]5)cc4)cc3)o2)cc1)/c1ccc(-c2nc(-c3ccccc3)c(-c3ccccc3)[nH]2)cc1
emission maximum (in C1CCOC1): 492 nm | emission maximum (in CC#N): 525 nm | emission maximum (in CN(C)C=O): 524 nm | emission maximum (in Cc1ccccc1): 445 nm

SMILES: COC(=O)c1ccc(NC(=O)c2ccc(N(C)C)cc2)cc1
emission maximum (in C1CCCCC1): 434 nm | emission maximum (in C1CCOC1): 470 nm | emission maximum (in CC#N): 516 nm | emission maximum (in CCOCC): 456 nm

SMILES: C1=C/C2=C(\c3ccccc3)c3c[nH]c(c3)/C(c3ccccc3)=C3/C=CC(=N3)/C(c3ccccc3)=c3/cc/c([nH]3)=C(\c3ccccc3)C1=N2
emission maximum (in CC(=O)N(C)C): 713 nm

SMILES: COc1ccc(-n2c3ccccc3c3cc(C=C(C#N)C#N)ccc32)cc1
emission maximum (in C1CCOC1): 499 nm | emission maximum (in CC#N): 536 nm | emission maximum (in CC(C)=O): 525 nm | emission maximum (in CCOC(C)=O): 495 nm | emission maximum (in CO): 534 nm | emission maximum (in CS(C)=O): 547 nm | emission maximum (in Cc1ccccc1): 450 nm | emission maximum (in ClC(Cl)Cl): 511 nm

SMILES: c1cc2ccc3ccc4cc3c2cc1c1ccc2c(c1)c1cc(ccc1[C@]13OCCO[C@]21OCCO3)c1ccc2c(c1)c1cc4ccc1[C@]13OCCO[C@]21OCCO3
emission maximum (in Cc1ccccc1): 388 nm

SMILES: CCCCC1(CCCC)c2cc(C#Cc3ccc4ccc5cccc6ccc3c4c56)ccc2-c2ccc(N(c3ccccc3)c3ccccc3)cc21
emission maximum (in C1CCCCC1): 436 nm | emission maximum (in C1CCOC1): 498 nm | emission maximum (in CC#N): 557 nm | emission maximum (in CCOC(C)=O): 490 nm | emission maximum (in CN(C)C=O): 565 nm | emission maximum (in Cc1ccccc1): 449 nm | emission maximum (in ClC(Cl)Cl): 486 nm | emission maximum (in ClCCl): 516 nm

SMILES: CC[NH+](CC)c1ccc(-c2nc3c(nc2-c2ccc(B(c4c(C)cc(C)cc4C)c4c(C)cc(C)cc4C)cc2)c2ccccc2n3C)cc1
emission maximum (in C1CCOC1): 428.33 nm

SMILES: C(/C=C/c1cc2c3c(c1)CCCN3CCC2)=C\c1ccncc1
emission maximum (in C1COCCO1): 518 nm | emission maximum (in CC#N): 569 nm | emission maximum (in CCCCCCC): 442 nm | emission maximum (in CO): 583 nm

SMILES: CNc1ccc2c(c1)C(=O)c1ccccc1-2
emission maximum (in C1CCCCC1): 587 nm | emission maximum (in c1ccccc1): 635 nm

SMILES: CCn1c2cc(-c3cccs3)ccc2c2ccc(-c3cccs3)cc21
emission maximum (in ClCCl): 391 nm

SMILES: COc1ccc(-c2nc(-c3cccc(OC)c3)[nH]c2-c2ccc(OC)cc2)cc1
emission maximum (in CO): 399 nm

SMILES: COc1ccc(C(=Cc2ccc(/C=C/c3ccc(C#N)cc3)cc2)c2ccc(OC)cc2)cc1
emission maximum (in C1CCOC1): 467 nm

SMILES: Cc1ccccc1C1=C2C=c3c(oc4ccc(C(C)(C)C)cc34)=[N+]2[B-](F)(F)n2c1cc1c3cc(C(C)(C)C)ccc3oc12
emission maximum (in C1CCCCC1): 602 nm | emission maximum (in CCOC(C)=O): 602 nm | emission maximum (in CO): 600.5 nm

SMILES: O=S(=O)(c1ccccc1)c1ccc(-n2c3ccccc3c3c2c2ccccc2n3-c2ccccc2)cc1
emission maximum (in Cc1ccccc1): 476 nm

SMILES: CC1=[N+]2C(=C(c3ccc(N4CCOCC4)cc3)c3ccc(C)n3[B-]2(F)F)C=C1
emission maximum (in C1CCCCC1): 520 nm | emission maximum (in C1CCOC1): 695 nm and 528 nm | emission maximum (in CC#N): 534 nm | emission maximum (in CC(=O)C(C)(C)C): 530 nm | emission maximum (in CC(C)=O): 517 nm | emission maximum (in CCCCCC): 520 nm | emission maximum (in CCOC(C)=O): 520 nm | emission maximum (in CO): 521 nm | emission maximum (in Cc1ccccc1): 524 nm | emission maximum (in ClC(Cl)Cl): 531 nm

SMILES: CCN1C(=CC2=C([O-])C(=Cc3[se]c4ccccc4[n+]3CC)C2=O)[Se]c2ccccc21
emission maximum (in CO): 688 nm | emission maximum (in ClC(Cl)Cl): 714 nm

SMILES: Cc1ccc(C)n1-c1ccc(C#N)cc1
emission maximum (in C1CCOC1): 501 nm | emission maximum (in CCCCCC): 406 nm | emission maximum (in CCCCCl): 480 nm | emission maximum (in CCOCC): 479 nm | emission maximum (in ClCCl): 517 nm

SMILES: CCCCCN1c2ccccc2Sc2cc(/C=C/c3ccc(/C=C(\C#N)C(=O)O)s3)ccc21
emission maximum (in ClCCl): 704 nm

SMILES: Nc1ccccc1C(=O)O
emission maximum (in C1CCCCC1): 387 nm | emission maximum (in C1COCCO1): 395 nm | emission maximum (in CC#N): 397 nm | emission maximum (in CC(C)=O): 394 nm | emission maximum (in CCO): 407 nm | emission maximum (in CO): 406 nm | emission maximum (in CS(C)=O): 400 nm | emission maximum (in O): 400 nm and 397 nm | emission maximum (in OCC(F)(F)F): 423 nm | emission maximum (in c1ccccc1): 394 nm

SMILES: CC(=O)c1nc(-c2ccc(N(C)C)cc2)oc1C
emission maximum (in CC#N): 376 nm | emission maximum (in CCO): 377 nm | emission maximum (in CCOC(C)=O): 370 nm | emission maximum (in CCOCC): 368 nm | emission maximum (in ClCCl): 373 nm

SMILES: CC(C)(C)c1ccc2c(c1)B1c3cc(C(C)(C)C)ccc3Oc3cc(-n4c5ccccc5c5c6c(c7ccccc7n6-c6ccccc6)c6c(c7ccccc7n6-c6ccccc6)c54)cc(c31)O2
emission maximum (in Cc1ccccc1): 456 nm

Other lines, results leading:

emission maximum (in CC#N): 607 nm | emission maximum (in ClCCl): 603 nm
SMILES: CCN(CC)c1ccc(/N=N/c2nc3ccc([N+](=O)[O-])cc3s2)cc1

emission maximum (in C1CCCCC1): 416 nm
SMILES: C(#Cc1ccccc1)C1=Cc2ccc3ccccc3c2NB1c1ccccc1

emission maximum (in C1CCCCC1): 339.9 nm
SMILES: Cc1cccc2ccccc12

emission maximum (in ClC(Cl)Cl): 816 nm
SMILES: COc1ccc(C2=c3sc(-c4ccc(OC)cc4)c(-c4ccc(OC)cc4)c3=[N+]3C2=Nc2c(-c4ccc(OC)cc4)c4sc(-c5ccc(OC)cc5)c(-c5ccc(OC)cc5)c4n2[B-]3(F)F)cc1

emission maximum (in CCO): 541 nm
SMILES: CNc1cc2nc3cc(Cl)c(Cl)cc3nc2cc1NC

emission maximum (in ClCCl): 620 nm
SMILES: COc1ccc(-c2c3cc4ccccc4cc3c(C#Cc3ccccc3)c3cc4cc(C)sc4cc23)cc1

emission maximum (in CS(C)=O): 431 nm
SMILES: CSc1ccc(-c2nc3sc4ccccc4c3s2)cc1

emission maximum (in ClC(Cl)Cl): 415 nm
SMILES: CCc1ccc(-n2c3ccccc3c3cc4c(cc32)c2ccccc2n4-c2ccc(CC)cc2)cc1

emission maximum (in CCO): 503 nm | emission maximum (in ClCCl): 500 nm
SMILES: N#Cc1cnc(-c2c3ccccc3c(-c3ncc(C#N)cn3)c3ccccc23)nc1

emission maximum (in CCO): 496 nm
SMILES: CC1(C)Nc2cc3nc4cc(F)c(F)cc4nc3cc2N1

emission maximum (in CC#N): 728 nm | emission maximum (in CCO): 721 nm | emission maximum (in CO): 720 nm | emission maximum (in ClC(Cl)Cl): 722 nm
SMILES: CCNc1cc2c(cc1C)C(c1ccccc1C(=O)O)=C1CCCC(/C=C/C3=[N+](C)c4ccccc4C3(C)C)=C1O2

emission maximum (in ClCCl): 368 nm
SMILES: c1ccc2c(c1)-c1sc3ccccc3c1C21c2ccccc2-c2sc3ccccc3c21

emission maximum (in CS(C)=O): 502 nm
SMILES: Cc1cccn2c1cc1c3ccccc3nc(-c3ccco3)c12

emission maximum (in ClC(Cl)Cl): 461 nm
SMILES: O=c1c2cc3ccc4cccc5ccc(c2c(=O)n1-c1ccccc1)c3c45

emission maximum (in CCO): 465 nm
SMILES: O=c1c2cc(F)c(O)cc2sc2cc(O)c(F)cc12

emission maximum (in CC#N): 609 nm | emission maximum (in CN(C)C=O): 618 nm | emission maximum (in ClCCl): 612 nm
SMILES: CCN(CC)c1ccc(/C=N/C(C#N)=C(C#N)/N=C/c2ccc(N(CC)CC)cc2O)c(O)c1

emission maximum (in CO): 581 nm
SMILES: COC(=O)COc1ccc(/C=C/C2=[N+]3C(=C(c4ccc(N5CCCCC5)cc4)c4c(C)cc(C)n4[B-]3(F)F)C(C)=C2)cc1

— the Deep4Chem optical property database
